Biological target: T1, N-terminally GST-tagged human full length recombinant Mps-1 kinase (Homo sapiens, UniProt P33981)
T1 construct: N-terminally GST-tagged human full length recombinant Mps-1 kinase; purchased Invitrogen, Karslruhe, Germany PV4071
T1 sequence (P33981 1-857): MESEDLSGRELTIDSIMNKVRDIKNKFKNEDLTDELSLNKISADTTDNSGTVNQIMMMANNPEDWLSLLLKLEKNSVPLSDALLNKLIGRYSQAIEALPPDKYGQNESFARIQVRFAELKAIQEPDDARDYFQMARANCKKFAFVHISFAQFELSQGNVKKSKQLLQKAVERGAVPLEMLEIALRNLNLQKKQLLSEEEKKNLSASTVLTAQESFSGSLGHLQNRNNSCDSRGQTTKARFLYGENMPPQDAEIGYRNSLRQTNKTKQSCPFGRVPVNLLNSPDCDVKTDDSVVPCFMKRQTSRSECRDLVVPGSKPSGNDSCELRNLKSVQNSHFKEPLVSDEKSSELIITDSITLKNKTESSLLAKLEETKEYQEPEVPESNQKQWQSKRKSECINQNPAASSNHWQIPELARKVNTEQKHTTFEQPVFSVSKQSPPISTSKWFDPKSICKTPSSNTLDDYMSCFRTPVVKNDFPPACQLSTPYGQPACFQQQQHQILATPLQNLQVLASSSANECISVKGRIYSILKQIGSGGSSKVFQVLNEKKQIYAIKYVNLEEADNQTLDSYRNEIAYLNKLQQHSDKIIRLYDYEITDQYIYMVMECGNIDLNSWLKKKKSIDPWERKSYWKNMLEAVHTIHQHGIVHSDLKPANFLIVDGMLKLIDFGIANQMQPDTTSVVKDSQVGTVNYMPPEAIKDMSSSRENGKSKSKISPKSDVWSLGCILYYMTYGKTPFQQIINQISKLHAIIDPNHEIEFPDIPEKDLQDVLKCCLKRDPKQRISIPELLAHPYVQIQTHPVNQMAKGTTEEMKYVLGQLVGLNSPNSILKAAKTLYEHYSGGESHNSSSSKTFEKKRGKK
Assay: Mps-1 kinase assay (TR-FRET)
Type: biochemical
Conditions: Mps1 IC50 [nM], 10 μM ATP, 1 μM peptide substrate, 60 min at 22° C.
Procedure: The human kinase Mps-1 phosphorylates a biotinylated substrate peptide. Detection of the phosphorylated product is achieved by time-resolved fluorescence resonance energy transfer (TR-FRET) from Europium-labelled anti-phospho-Serine/Threonine antibody as donor to streptavidin labelled with cross-linked allophycocyanin (SA-XLent) as acceptor. Compounds are tested for their inhibition of the kinase activity.
N-terminally GST-tagged human full length recombinant Mps-1 kinase (purchased from Invitrogen, Karslruhe, Germany, cat. no PV4071) was used. As substrate for the kinase reaction a biotinylated peptide of the amino-acid sequence […] (C-terminus in amide form, purchased from Biosynthan GmbH, Berlin) was used.
The concentration of Mps-1 in the assay was adjusted to the activity of the enzyme lot and was chosen appropriate to have the assay in the linear range, typical enzyme concentrations were in the range of about 1 nM (final conc. in the 5 μl assay volume).
The resulting mixture was incubated 1 h at 22° C. to allow the binding of the phosphorylated peptide to the anti-phospho(Ser/Thr)-Europium-antibody. Subsequently the amount of phosphorylated substrate was evaluated by measurement of the resonance energy transfer from the Europium-labelled anti-phospho(Ser/Thr) antibody to the Streptavidin-XLent.

SMILES	IC50
Cc1cc(-c2cnc3c(NCC(F)F)cc(Oc4cccc(F)c4)nn23)ccc1C(=O)NC1CC1 [Example 512, N-cyclopropyl-4-{8-[(2,2-difluoro-ethyl)amino]-6-(3-fluoro-phenoxy)imidazo[1,2-b]pyridazin-3-yl}-2-methylbenzamide]	0.1 nM
Cc1cccc(Nc2cc(NCCC(F)(F)F)c3ncc(-c4ccc(C(=O)NC5CC5)c(C)c4)n3n2)c1 [Example 423, N-cyclopropyl-2-methyl-4-{6-[(3-methylphenyl)amino]-8-[(3,3,3-trifluoropropyl)amino]imidazo[1,2-b]pyridazin-3-yl}benzamide]	0.3 nM
NS(=O)(=O)CCNc1cc(Cl)nn2c(-c3ccc(C(=O)NC4CC4)cc3)cnc12 [Example 98, 4-{6-Chloro-8-[(2-sulfamoylethyl)amino]imidazo[1,2-b]pyridazin-3-yl}-N-cyclopropylbenzamide]	52.3 nM
Cc1cc(-c2cnc3c(NCC(C)(C)O)cc(Oc4ccc(F)nc4)nn23)ccc1C(=O)NC1CC1 [Example 410, N-cyclopropyl-4-{6-[(6-fluoropyridin-3-yl)oxy]-8-[(2-hydroxy-2-methylpropyl)amino]imidazo[1,2-b]pyridazin-3-yl}-2-methylbenzamide]	0.5 nM
Cc1cc(-c2cnc3c(NC[C@H]4CC[S@+]([O-])CC4)cc(Sc4cccc(F)c4)nn23)ccc1C(=O)NC1CC1 [Example 304B, N-cyclopropyl-4-(6-[(3-fluorophenyl)sulfanyl]-8-({[(trans)-1-oxidotetrahydro-2H-thiopyran-4-yl]methyl}amino)imidazo[1,2-b]pyridazin-3-yl)-2-methylbenzamide]	0.1 nM
Cc1cc(-c2cnc3c(NCC(C)(C)O)cc(Nc4ccc(CCN)cc4)nn23)ccc1C(=O)NC1CC1 [Example 435, 4-(6-{[4-(2-aminoethyl)phenyl]amino}-8-[(2-hydroxy-2-methylpropyl)amino]imidazo[1,2-b]pyridazin-3-yl)-N-cyclopropyl-2-methylbenzamide]	1.6 nM
Cc1cc(-c2cnc3c(NCC(C)(C)O)cc(Sc4cccc(C(C)C)c4)nn23)ccc1C(=O)NC1CC1 [Example 273, N-cyclopropyl-4-{8-[(2-hydroxy-2-methylpropyl)amino]-6-[(3-isopropylphenyl)sulfanyl]imidazo[1,2-b]pyridazin-3-yl}-2-methylbenzamide]	0.5 nM
Cc1cc(F)cc(Oc2cc(NCC(C)(C)O)c3ncc(-c4ccc(C(=O)NC5CC5)c(C)c4)n3n2)c1 [Example 87, N-cyclopropyl-4-{6-(3-fluoro-5-methylphenoxy)-8-[(2-hydroxy-2-methylpropyl)amino]imidazo[1,2-b]pyridazin-3-yl}-2-methylbenzamide]	0.2 nM
CC(C)CNc1cc(-c2cccs2)nn2c(-c3ccc(C(=O)NC4CC4)cc3)cnc12 [Example 121, N-cyclopropyl-4-{8-[(2-methylpropyl)amino]-6-(thiophen-2-yl)imidazo [1,2-b]pyridazin-3-yl} benzamide]	1.8 nM
Cc1cc(-c2cnc3c(NCCS(=O)(=O)O)cc(Oc4cccc(F)c4)nn23)ccc1C(=O)NC1CC1 [Example 548, 2-({3-[4-(cyclopropylcarbamoyl)-3-methylphenyl]-6-(3-fluorophenoxy)imidazo[1,2-b]pyridazin-8-yl}amino)ethanesulfonic acid]	0.7 nM
Cc1cc(-c2cnc3c(NCC(C)(C)O)cc(Oc4cccnc4)nn23)ccc1C(=O)NC1CC1 [Example 173, N-cyclopropyl-4-{8-[(2-hydroxy-2-methylpropyl)amino]-6-(pyridin-3-yloxy)imidazo[1,2-b]pyridazin-3-yl}-2-methylbenzamide]	0.4 nM
Cc1cc(F)cc(Sc2cc(NCC3CCSCC3)c3ncc(-c4ccc(C(=O)NC5CC5)c(C)c4)n3n2)c1 [Example 286, N-cyclopropyl-4-{6-[(3-fluoro-5-methylphenyl)sulfanyl]-8-[(tetrahydro-2H-thiopyran-4-ylmethyl)amino]imidazo[1,2-b]pyridazin-3-yl}-2-methylbenzamide]	0.4 nM
CNc1cc(N(C)c2ccccc2O)nn2c(-c3ccc(C(=O)NC4CC4)c(C)c3)cnc12 [Example 532, N-cyclopropyl-4-{6-[(2-hydroxyphenyl)(methyl)amino]-8-(methylamino)imidazo[1,2-b]pyridazin-3-yl}-2-methylbenzamide]	0.2 nM
Cc1cc(-c2cnc3c(NCC(C)(C)O)cc(Nc4ccc(Cl)c(F)c4)nn23)ccc1C(=O)NC1CC1 [Example 401, 4-{6-[(4-chloro-3-fluorophenyl)amino]-8-[(2-hydroxy-2-methylpropyl)amino]imidazo[1,2-b]pyridazin-3-yl}-N-cyclopropyl-2-methylbenzamide]	1 nM
CSc1cc(NCC(C)(C)O)c2ncc(-c3ccc(C(=O)NC4CC4)c(C)c3)n2n1 [Example 15, N-cyclopropyl-4-{8-[(2-hydroxy-2-methylpropyl)amino]-6-(methylsulfanyl)imidazo[1,2-b]pyridazin-3-yl}-2-methylbenzamide]	21.5 nM
CNc1ccccc1Oc1cc(NC)c2ncc(-c3ccc(C(=O)NC4CC4)c(C)c3)n2n1 [Example 531, N-cyclopropyl-2-methyl-4-{8-(methylamino)-6-[2-(methylamino)phenoxy]imidazo[1,2-b]pyridazin-3-yl} benzamide]	14.8 nM
Cc1cc(-c2cnc3c(NCC(C)(C)N)cc(Oc4ccc(Cl)cc4)nn23)ccc1C(=O)NC1CC1 [Example 521, 4-{8-[(2-amino-2-methyl-propyl)amino]-6-(4-chloro-phenoxy)imidazo[1,2-b]pyridazin-3-yl}-N-cyclopropyl-2-methylbenzamide]	0.3 nM
c1cc(-c2cc(NC[C@H]3CCCO3)c3ncc(-c4ccc(-c5cnc(C6CC6)[nH]5)cc4)n3n2)ccn1 [Example 5, 3-[4-(2-Cyclopropyl-1H-imidazol-5-yl)phenyl]-6-(pyridin-4-yl)-N-[(2R)-tetrahydrofuran-2-ylmethyl]imidazo[1,2-b]pyridazin-8-amine]	13.3 nM
CC(C)(O)CNc1cc(Sc2ccccc2)nn2c(-c3ccc(C(=S)NC4CC4)cc3)cnc12 [Example 245, N-cyclopropyl-4-{8-[(2-hydroxy-2-methylpropyl)amino]-6-(phenylsulfanyl)imidazo[1,2-b]pyridazin-3-yl}benzenecarbothioamide]	0.7 nM
CC(=O)NCCCNc1cc(Oc2cccc(F)c2)nn2c(-c3ccc(C(=O)NC4CC4)c(C)c3)cnc12 [Example 509, 4-[8-{[3-(acetylamino)propyl]amino}-6-(3-fluorophenoxy)imidazo[1,2-b]pyridazin-3-yl]-N-cyclopropyl-2-methyl-benzamide]	0.1 nM
Cc1cc(-c2cnc3c(NCC4CCSCC4)cc(Oc4ccc(F)cc4)nn23)ccc1C(=O)NC1CC1 [Example 290, N-cyclopropyl-4-{6-(4-fluorophenoxy)-8-[(tetrahydro-2H-thiopyran-4-ylmethyl)amino]imidazo[1,2-b]pyridazin-3-yl}-2-methylbenzamide]	0.3 nM
CC(C)(O)CNc1cc(Sc2cccc(F)c2)nn2c(-c3ccc(C(=O)NC4CC4)cc3O)cnc12 [Example 62A, N-cyclopropyl-4-{6-[(3-fluorophenyl)sulfanyl]-8-[(2-hydroxy-2-methylpropyl)amino]imidazo[1,2-b]pyridazin-3-yl}-3-hydroxybenzamide]	0.2 nM
Cc1ccc(Oc2cc(NCC(C)(C)O)c3ncc(-c4ccc(C(=O)NC5CC5)c(C)c4)n3n2)cn1 [Example 264, N-cyclopropyl-4-{8-[(2-hydroxy-2-methylpropyl)amino]-6-[(6-methylpyridin-3-yl)oxy]imidazo[1,2-b]pyridazin-3-yl}-2-methylbenzamide]	2 nM
CNC(=O)c1ccc(-c2cnc3c(NCC(C)C)cc(Cl)nn23)cc1Cl [Example 180, 2-Chloro-4-{6-chloro-8-[(2-methylpropyl)amino]imidazo[1,2-b]pyridazin-3-yl}-N-methylbenzamide]	327 nM
